# According to article PMC4581874 (PLoS ONE, 2015):
# Assays:
# FLT3 (h) = target: T1, FLT3 (h) (Homo sapiens, UniProt P36888); experiment: Kinase profile, FLT3; type: biochemical; conditions: mean ± S.D.
# T1 construct: purchased Millipore (now Eurofins) KinaseProfiler / IC50 Profiler
# Method: (§1) All kinase assays were carried out using KinaseProfiler^TM and IC50 Profiler^TM (Millipore UK Ltd., Dundee, UK. Now Eurofins Scientific, Dundee, UK). All IC50 data were presented as the mean values. The Curves obtained to determine IC50 values were shown in Supporting Information (S1 Fig).
# CDK5/p35 (h) = target: T2, CDK5/p35 (h) (Homo sapiens, UniProt Q00535); experiment: Kinase profile, CDK5/p35; type: biochemical; conditions: mean ± S.D.
# T2 construct: purchased Millipore (now Eurofins) KinaseProfiler / IC50 Profiler
# Method: as §1
# LKB1 (h) = target: T3, LKB1 (h) (Homo sapiens, UniProt Q15831); experiment: Kinase profile, LKB1; type: biochemical; conditions: mean ± S.D.
# T3 construct: purchased Millipore (now Eurofins) KinaseProfiler / IC50 Profiler
# Method: as §1
# CaMKIIγ (h) = target: T4, CaMKIIγ (h) (Homo sapiens, UniProt Q13555); experiment: Kinase profile, CaMKIIγ; type: biochemical; conditions: mean ± S.D.
# T4 construct: purchased Millipore (now Eurofins) KinaseProfiler / IC50 Profiler
# Method: as §1
# HUVECs = experiment: VEGF-induced endothelial proliferation assay; type: cell-based, human; conditions: VEGF 50 ng/mL, compound 1 μg/mL
# Method: For the cell proliferation assays, cells were incubated overnight in endothelial basal media (EBM; Lonza, Walkersville, MD, USA) containing 0.5% FBS or supplemented with VEGF-A and/or VEGF inhibitors. The cells were washed with PBS and counted in 4 random microscope fields. The tube formation assay was performed by seeding cells on Matrigel-coated plates (BD Bioscience, Bedford, MA, USA) and incubating in EBM containing 0.5% FBS or supplemented with VEGF-A and/or VEGF inhibitors. After overnight incubation, tubule networks were quantified by measuring the tubule length in 4 random microscope fields. For the analysis of scratch wound migration, confluent cell monolayers grown on 6-well plates were scratched using a micropipette tip. After the plates were washed with PBS to remove dislodged cells and media, they were incubated with EBM containing 0.5% FBS or supplemented with VEGF and/or VEGF inhibitors for 8 hours. Cell migration was observed by optical microscopy and quantified by measuring the number of cells that had migrated from the wound edges.
# PKA (h) = target: T5, PKA (h) (Homo sapiens, UniProt P17612); experiment: Kinase profile, PKA; type: biochemical; conditions: mean ± S.D.
# T5 construct: purchased Millipore (now Eurofins) KinaseProfiler / IC50 Profiler
# Method: as §1
# PKCι (h) = target: T6, PKCι (h) (Homo sapiens, UniProt P41743); experiment: Kinase profile, PKCι; type: biochemical; conditions: mean ± S.D.
# T6 construct: purchased Millipore (now Eurofins) KinaseProfiler / IC50 Profiler
# Method: as §1
# PKG1β (h) = target: T7, PKG1β (h) (Homo sapiens, UniProt Q13976); experiment: Kinase profile, PKG1β; type: biochemical; conditions: mean ± S.D.
# T7 construct: purchased Millipore (now Eurofins) KinaseProfiler / IC50 Profiler
# Method: as §1
# PKCζ (h) = target: T8, PKCζ (h) (Homo sapiens, UniProt Q05513); experiment: Kinase profile, PKCζ; type: biochemical; conditions: mean ± S.D.
# T8 construct: purchased Millipore (now Eurofins) KinaseProfiler / IC50 Profiler
# Method: as §1
# MAPK1 (h) = target: T9, MAPK1 (h) (Homo sapiens, UniProt P27361); experiment: Kinase profile, MAPK1; type: biochemical; conditions: mean ± S.D.
# T9 construct: purchased Millipore (now Eurofins) KinaseProfiler / IC50 Profiler
# Method: as §1
# PKCα (h) = target: T10, PKCα (h) (Homo sapiens, UniProt P17252); experiment: Kinase profile, PKCα; type: biochemical; conditions: mean ± S.D.
# T10 construct: purchased Millipore (now Eurofins) KinaseProfiler / IC50 Profiler
# Method: as §1
# PKCβI (h) = target: T11, PKCβI (h) (Homo sapiens, UniProt P05771); experiment: Kinase profile, PKCβI; type: biochemical; conditions: mean ± S.D.
# T11 construct: purchased Millipore (now Eurofins) KinaseProfiler / IC50 Profiler
# Method: as §1
# HCC827 cells = experiment: HCC827 cell viability assay; type: cell-based; conditions: Homo sapiens, 72 h, read-out: HCC827 IC50 (anti-proliferative activity)
# Method: HCC827 cells were purchased from the American Type Culture Collection (ATCC, Manassas, VA, USA). […] Human umbilical vein endothelial cells (HUVECs, ScienCell Research Laboratories, Carlsbad, CA, USA) were cultured in endothelial growth medium-2 (EGM-2; Lonza, Walkersville, MD, USA) from passages 3 to 6.
# After a 24-hour incubation, the cells were treated with a series of test compound dilutions for 72 hours. Cell viability was assessed using EZ-Cytox (Daeil Lab Service, Seoul, South Korea) according to the manufacturer’s instructions.
# Cells were incubated for 72 h with a range of concentrations of MKP101, and cell viability was measured using the WST-1 assay. […] Western blot analysis using antibodies to phosphorylated and total EGFR from a representative experiment is shown. Cells were incubated for 3 h at the indicated concentration. (C) Graph showing the relative intensities of the total and phosphorylated EGFR as determined by band densitometry. IC50, half-maximal inhibitory concentration.
# FGFR1 = target: T12, FGFR1 (Homo sapiens, UniProt P11362); experiment: In vitro kinase assay, FGFR1; type: biochemical
# T12 construct: purchased Millipore UK Ltd., Dundee, UK (now Eurofins Scientific); KinaseProfiler / IC50 Profiler service
# Method: as §1
# PhKγ2 (h) = target: T13, PhKγ2 (h) (Homo sapiens, UniProt P15735); experiment: Kinase profile, PhKγ2; type: biochemical; conditions: mean ± S.D.
# T13 construct: purchased Millipore (now Eurofins) KinaseProfiler / IC50 Profiler
# Method: as §1
# CDK7/cyclin H/MAT1 (h) = target: T14, CDK7/cyclin H/MAT1 (h) (Homo sapiens, UniProt P50613); experiment: Kinase profile, CDK7/cyclin H/MAT1; type: biochemical; conditions: mean ± S.D.
# T14 construct: purchased Millipore (now Eurofins) KinaseProfiler / IC50 Profiler
# Method: as §1
# PKG1α (h) = target: T15, PKG1α (h) (Homo sapiens, UniProt Q13976); experiment: Kinase profile, PKG1α; type: biochemical; conditions: mean ± S.D.
# T15 construct: purchased Millipore (now Eurofins) KinaseProfiler / IC50 Profiler
# Method: as §1
# CaMKIIβ (h) = target: T16, CaMKIIβ (h) (Homo sapiens, UniProt Q13554); experiment: Kinase profile, CaMKIIβ; type: biochemical; conditions: mean ± S.D.
# T16 construct: purchased Millipore (now Eurofins) KinaseProfiler / IC50 Profiler
# Method: as §1
# phosphorylated EGFR = experiment: Western blot of EGFR phosphorylation in HCC827 cells; type: cell-based; conditions: 3 h
# Method: Fig 3 MKP101 inhibits proliferation of epidermal growth factor receptor (EGFR)-tyrosine kinase inhibitor (TKI)-sensitive non-small cell lung cancer (NSCLC) cells. (A) Inhibition of HCC827 cell proliferation. Cells were incubated for 72 h with a range of concentrations of MKP101, and cell viability was measured using the WST-1 assay. […] (B) Inhibition of EGFR phosphorylation in HCC827 cells. Western blot analysis using antibodies to phosphorylated and total EGFR from a representative experiment is shown. Cells were incubated for 3 h at the indicated concentration. (C) Graph showing the relative intensities of the total and phosphorylated EGFR as determined by band densitometry. IC50, half-maximal inhibitory concentration.
# CaMKIV (h) = target: T17, CaMKIV (h) (Homo sapiens, UniProt Q16566); experiment: Kinase profile, CaMKIV; type: biochemical; conditions: mean ± S.D.
# T17 construct: purchased Millipore (now Eurofins) KinaseProfiler / IC50 Profiler
# Method: as §1
# PDGFRα = target: T18, PDGFRα (Homo sapiens, UniProt P16234); experiment: In vitro kinase assay, PDGFRα; type: biochemical
# T18 construct: purchased Millipore UK Ltd., Dundee, UK (now Eurofins Scientific); KinaseProfiler / IC50 Profiler service
# Method: as §1
# PKCμ (h) = target: T19, PKCμ (h) (Homo sapiens, UniProt Q15139); experiment: Kinase profile, PKCμ; type: biochemical; conditions: mean ± S.D.
# T19 construct: purchased Millipore (now Eurofins) KinaseProfiler / IC50 Profiler
# Method: as §1
# T12 sequence (P11362 22-822): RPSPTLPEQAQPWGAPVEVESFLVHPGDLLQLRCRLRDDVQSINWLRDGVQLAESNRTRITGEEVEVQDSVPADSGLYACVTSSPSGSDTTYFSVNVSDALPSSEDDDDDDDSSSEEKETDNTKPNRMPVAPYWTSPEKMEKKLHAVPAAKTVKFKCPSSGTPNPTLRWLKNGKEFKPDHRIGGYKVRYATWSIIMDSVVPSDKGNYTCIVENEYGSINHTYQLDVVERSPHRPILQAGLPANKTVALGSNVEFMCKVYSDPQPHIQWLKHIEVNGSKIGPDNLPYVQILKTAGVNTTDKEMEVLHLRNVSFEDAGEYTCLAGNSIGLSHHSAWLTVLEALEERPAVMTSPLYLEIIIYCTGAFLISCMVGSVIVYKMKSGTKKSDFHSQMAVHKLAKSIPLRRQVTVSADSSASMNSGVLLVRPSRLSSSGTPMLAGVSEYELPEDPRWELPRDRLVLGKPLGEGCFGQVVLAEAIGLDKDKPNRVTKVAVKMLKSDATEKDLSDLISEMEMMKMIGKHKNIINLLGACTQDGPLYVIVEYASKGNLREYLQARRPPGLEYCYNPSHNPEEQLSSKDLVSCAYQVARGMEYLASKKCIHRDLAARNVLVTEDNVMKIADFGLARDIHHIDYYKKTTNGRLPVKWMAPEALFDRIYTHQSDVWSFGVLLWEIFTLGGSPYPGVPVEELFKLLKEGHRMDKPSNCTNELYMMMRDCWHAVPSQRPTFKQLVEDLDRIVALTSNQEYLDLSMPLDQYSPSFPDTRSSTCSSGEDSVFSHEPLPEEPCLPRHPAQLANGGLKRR
# T18 sequence (P16234 24-1089): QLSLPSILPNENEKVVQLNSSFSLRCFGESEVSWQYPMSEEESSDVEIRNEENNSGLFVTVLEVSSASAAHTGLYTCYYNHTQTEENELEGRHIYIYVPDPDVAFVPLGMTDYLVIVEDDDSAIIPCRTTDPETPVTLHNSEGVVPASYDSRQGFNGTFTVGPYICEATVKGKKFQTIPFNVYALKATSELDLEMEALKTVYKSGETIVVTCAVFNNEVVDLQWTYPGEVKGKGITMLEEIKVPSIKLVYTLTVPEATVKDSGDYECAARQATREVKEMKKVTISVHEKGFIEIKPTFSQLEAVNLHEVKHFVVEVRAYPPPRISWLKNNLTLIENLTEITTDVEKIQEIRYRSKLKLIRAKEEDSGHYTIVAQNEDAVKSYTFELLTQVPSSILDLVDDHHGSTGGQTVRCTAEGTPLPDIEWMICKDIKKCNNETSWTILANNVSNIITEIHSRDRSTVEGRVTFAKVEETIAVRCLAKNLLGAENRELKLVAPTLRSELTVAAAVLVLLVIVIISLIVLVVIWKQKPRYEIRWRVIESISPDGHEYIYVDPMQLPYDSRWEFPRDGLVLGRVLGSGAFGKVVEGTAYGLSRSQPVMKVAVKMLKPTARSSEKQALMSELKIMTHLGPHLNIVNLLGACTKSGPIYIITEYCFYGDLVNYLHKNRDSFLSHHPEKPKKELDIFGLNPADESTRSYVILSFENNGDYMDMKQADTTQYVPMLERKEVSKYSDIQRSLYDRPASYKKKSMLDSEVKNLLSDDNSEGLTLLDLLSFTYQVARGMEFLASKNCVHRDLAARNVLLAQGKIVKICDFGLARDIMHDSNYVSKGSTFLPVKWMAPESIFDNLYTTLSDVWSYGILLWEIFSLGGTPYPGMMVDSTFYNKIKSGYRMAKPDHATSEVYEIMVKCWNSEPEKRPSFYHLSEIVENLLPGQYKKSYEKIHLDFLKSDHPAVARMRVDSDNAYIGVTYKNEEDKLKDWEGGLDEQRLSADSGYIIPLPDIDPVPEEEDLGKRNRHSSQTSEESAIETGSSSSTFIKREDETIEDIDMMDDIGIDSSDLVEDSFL
# T9 sequence (P27361 whole entry): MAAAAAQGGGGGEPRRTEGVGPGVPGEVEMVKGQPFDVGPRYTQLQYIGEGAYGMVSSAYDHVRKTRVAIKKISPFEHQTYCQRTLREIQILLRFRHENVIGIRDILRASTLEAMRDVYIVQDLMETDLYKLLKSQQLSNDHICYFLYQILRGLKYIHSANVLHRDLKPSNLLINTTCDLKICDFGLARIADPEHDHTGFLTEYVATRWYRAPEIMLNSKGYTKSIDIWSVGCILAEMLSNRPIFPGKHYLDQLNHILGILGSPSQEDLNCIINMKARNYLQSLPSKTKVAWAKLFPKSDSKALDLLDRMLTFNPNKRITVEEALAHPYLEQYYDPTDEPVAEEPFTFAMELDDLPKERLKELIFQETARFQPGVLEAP
# T1 sequence (P36888 27-993): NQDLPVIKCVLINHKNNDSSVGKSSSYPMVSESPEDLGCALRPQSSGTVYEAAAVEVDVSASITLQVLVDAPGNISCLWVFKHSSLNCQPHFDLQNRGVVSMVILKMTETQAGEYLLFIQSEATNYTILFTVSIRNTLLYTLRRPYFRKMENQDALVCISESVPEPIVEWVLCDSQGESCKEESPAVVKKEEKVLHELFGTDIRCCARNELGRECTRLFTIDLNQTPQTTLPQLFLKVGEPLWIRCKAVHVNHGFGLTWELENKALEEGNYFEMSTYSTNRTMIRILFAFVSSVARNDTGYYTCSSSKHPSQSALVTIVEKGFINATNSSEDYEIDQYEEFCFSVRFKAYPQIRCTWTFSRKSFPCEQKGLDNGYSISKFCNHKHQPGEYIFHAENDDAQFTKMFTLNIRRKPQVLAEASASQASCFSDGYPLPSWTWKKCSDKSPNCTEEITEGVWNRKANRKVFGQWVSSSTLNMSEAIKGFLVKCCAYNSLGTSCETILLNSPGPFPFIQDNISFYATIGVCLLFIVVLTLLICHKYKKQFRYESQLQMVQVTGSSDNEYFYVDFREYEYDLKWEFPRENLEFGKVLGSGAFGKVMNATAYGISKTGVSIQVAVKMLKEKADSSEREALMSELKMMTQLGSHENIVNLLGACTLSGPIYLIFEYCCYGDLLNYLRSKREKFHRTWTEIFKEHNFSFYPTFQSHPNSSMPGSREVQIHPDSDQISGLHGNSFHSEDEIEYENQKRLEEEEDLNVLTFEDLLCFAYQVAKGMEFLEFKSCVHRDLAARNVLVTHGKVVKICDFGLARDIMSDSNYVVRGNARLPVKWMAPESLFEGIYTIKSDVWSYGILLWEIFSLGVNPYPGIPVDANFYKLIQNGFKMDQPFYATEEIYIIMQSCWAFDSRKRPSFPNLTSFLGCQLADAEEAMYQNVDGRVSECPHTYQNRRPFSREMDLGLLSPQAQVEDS
# T4 sequence (Q13555 whole entry): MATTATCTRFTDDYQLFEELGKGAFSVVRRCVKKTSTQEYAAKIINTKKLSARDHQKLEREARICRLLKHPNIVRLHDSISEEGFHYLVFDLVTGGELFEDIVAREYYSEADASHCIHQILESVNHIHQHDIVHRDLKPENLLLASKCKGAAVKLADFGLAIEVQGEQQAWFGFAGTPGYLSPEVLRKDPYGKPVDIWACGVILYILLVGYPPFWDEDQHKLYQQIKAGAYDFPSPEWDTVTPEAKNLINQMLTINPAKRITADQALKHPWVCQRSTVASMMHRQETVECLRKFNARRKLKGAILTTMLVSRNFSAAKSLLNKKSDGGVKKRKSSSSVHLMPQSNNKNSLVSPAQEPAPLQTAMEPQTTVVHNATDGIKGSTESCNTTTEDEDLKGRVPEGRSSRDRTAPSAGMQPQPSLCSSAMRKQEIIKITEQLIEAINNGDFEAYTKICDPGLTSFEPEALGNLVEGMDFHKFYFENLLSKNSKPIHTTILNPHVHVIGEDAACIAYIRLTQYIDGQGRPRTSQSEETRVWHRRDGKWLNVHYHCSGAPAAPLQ
# T17 sequence (Q16566 whole entry): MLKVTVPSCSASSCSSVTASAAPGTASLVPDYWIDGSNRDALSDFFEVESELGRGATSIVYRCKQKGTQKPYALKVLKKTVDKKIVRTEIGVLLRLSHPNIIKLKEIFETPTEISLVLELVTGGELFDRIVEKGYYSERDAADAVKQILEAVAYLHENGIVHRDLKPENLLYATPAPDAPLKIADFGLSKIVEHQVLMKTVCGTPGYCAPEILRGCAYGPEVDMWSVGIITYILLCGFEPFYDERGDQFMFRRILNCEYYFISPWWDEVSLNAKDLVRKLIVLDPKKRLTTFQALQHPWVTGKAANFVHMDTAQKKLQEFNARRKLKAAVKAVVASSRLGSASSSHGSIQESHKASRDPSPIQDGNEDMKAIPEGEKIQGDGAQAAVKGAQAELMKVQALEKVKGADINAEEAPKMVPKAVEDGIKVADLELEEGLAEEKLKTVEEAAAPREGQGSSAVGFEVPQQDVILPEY
smiles,measurement,setting,value
Cc1ccc(Nc2nccc(N(C)c3ccc4[nH]ccc4c3)n2)cc1S(N)(=O)=O [MKP101],inhibition at 1 µM,FLT3 (h),91 ± 1%
same,inhibition at 1 µM,CDK5/p35 (h),38 ± 3%
same,inhibition at 1 µM,LKB1 (h),0%
same,inhibition at 1 µM,CaMKIIγ (h),37 ± 2%
same,Effect on VEGF-induced increase in endothelial proliferation,HUVECs,significantly inhibited
same,inhibition at 1 µM,PKA (h),7 ± 6%
same,inhibition at 1 µM,PKCι (h),5 ± 6%
same,inhibition at 1 µM,PKG1β (h),7 ± 1%
same,inhibition at 1 µM,PKCζ (h),5 ± 4%
same,inhibition at 1 µM,MAPK1 (h),4 ± 5%
same,inhibition at 1 µM,PKCα (h),10 ± 1%
same,inhibition at 1 µM,PKCβI (h),7 ± 5%
same,IC50,HCC827 cells,160 nM
same,inhibition at 1 µM,"FGFR1; 1 μM, mean ± S.D., read-out: % inhibition at 1 μM, FGFR1 (h)",98 ± 1%
same,IC50,FGFR1; in vitro kinase assay,28 nM
same,inhibition at 1 µM,PhKγ2 (h),0%
same,inhibition at 1 µM,CDK7/cyclin H/MAT1 (h),16 ± 5%
same,inhibition at 1 µM,PKG1α (h),0%
same,inhibition at 1 µM,CaMKIIβ (h),17 ± 4%
same,Inhibition of EGFR phosphorylation,phosphorylated EGFR,reduced the levels of phosphorylated EGFR
same,inhibition at 1 µM,CaMKIV (h),0%
same,inhibition at 1 µM,"PDGFRα; 1 μM, mean ± S.D., read-out: % inhibition at 1 μM, PDGFRα (h)",93%
same,IC50,PDGFRα; in vitro kinase assay,162 nM
same,inhibition at 1 µM,PKCμ (h),7 ± 1%
